Data from patent US8193224B2, “Medicinal composition for prevention or treatment of parasitic protozoan infection” (Fujifilm Corporation, priority 2004, dated 2012).
Where two headings read alike, the source gives them in different places.

How the values were obtained:
Format in all cases: cell-based
[1] = Growth inhibition test of mouse FM3A cells
Description: F28-7 strain which is a wild-type of the mouse breast cancer derived FM3A cell was used. As for a medium, immobilized fetal bovine serum was added to a ES medium at 2%, which medium was cultured under CO2 concentration 5%, at 37° C. Doubling time of FM3A cells under that condition was approximately 12 hours. Pre-culture was conducted and cells which have entered the logarithmic growth phase were diluted in a medium to be 5×10^4 cells/mL Those prepared when measuring malarial activity were used as a sample. Sample solution was added in an amount of to 10 μL in a 24-well culture plate (the final concentration was 1×10^−4 to 1×10^−5, by adding media etc). Compounds were taken by duplicates, and wells added with 10 μL DMSO were prepared at the same time as a control. Next, cultured cell suspension previously prepared was added in an amount of 990 to 995 μL, pipetted quietly and suspended in a medium similarly. After culturing 48 hours, the cells were counted with a cell controller (CC-108, Toa. Medical Electrics) for each well. Growth rate was calculated with the following formula, to obtain a 50% growth inhibition rate (EC50). Growth rate (%)={(C−A)/(B−A)}×100 A: primary cell count B: cell count of the control, 2 days after C: cell count of wells added with a sample, 2 days after
Cell growth inhibiting activity was calculated from cell count of wells added with a sample, and cell count of the control.

[2] = tested on: Plasmodium falciparum FCR-3 strain; assay: Drug sensitive-Plasmodium falciparum growth inhibition screening test; conditions: for EC50: Plasmodium falciparum, FCR3, Erythrocyte, read-out: 50% growth inhibition concentration P. falciparum FCR; for Selective toxicity: chemotherapy index = EC50 mouse FM3A cells / EC50 drug sensitive P. falciparum
Description: In the present example, protozoa of Plasmodium falciparum FCR-3 strain was used. RPMI-1640 medium sterilized with a filter was used in the experiment. pH was adjusted to 7.4, and human serum was added to be 10%. Malarial parasites were cultured under 5% O2 concentration, 5% CO2 concentration, 90% N2 concentration, and at a temperature of 36.5° C.
Cultured malarial parasite infected-erythrocytes were collected by centrifugation, and washed in a medium containing serum. Non-infected erythrocytes were added so that the primary infection rate is 0.3%. Hematocrit level at that time was 3%. The compounds of the present invention to be used in the test and the positive target drugs (chloroquine, quinine) were dissolved in dimethylsulfoxide (DMSO) to make a test solution of a predetermined concentration. The test solution was added in an amount of 5 to 10 μl in a 24-well culture plate. To the control, DMSO was added in an amount of 10 μL/well. Test solutions were taken by duplicates. Subsequently, Plasmodium falciparum culture solution previously prepared to a predetermined concentration was added, pipetted quietly, and suspended in the medium similarly. Culture plate was cultured for 72 hours in a CO2—O2—N2(5%, 5%, 90%) incubator. Thin layer smear preparations were prepared for each well, and after performing Diff-Quick staining, the preparations were measured with a microscope (oil immersion, 1,000×), and malarial parasite infection rates of the test solution added-group and of the control group were calculated. Growth inhibition rate was calculated with the following formula from the malarial parasite infection rate obtained in the above, to obtain a 50% growth inhibition concentration (EC50). Growth inhibition rate (%)={1−(b−a)/(c−a)}×100 a: early infection rate b: infection rate when test solution was added c: infection rate of the control

[3] = Growth inhibition test of rat L6 cells; conditions: L6 cells (rat skeletal myoblast)
Description: Rat derived-L6 cells (rat skeletal myoblast cell) were used. As medium, RPMI1640 medium was supplemented so that L-glutamin (200 mM) is 1%, and fetal bovine serum 10%, and the medium was cultured under CO2 concentration 5%, at 37° C. The compounds of the present invention and the target drugs to be used in the test were dissolved in DMSO, to make a test solution of a predetermined concentration. Pre-culture was conducted and medium containing cells which have entered the logarithmic growth phase was taken to wells of a 96-well culture plate. Then, a test solution containing drug of a predetermined concentration or a drug-free DMSO was added. Test solutions were taken by duplicates. Culture plate was cultured for 72 hours in an incubator, to test the growth inhibition activity. Test was conducted as follows.
10 μl of Alamar Blue aqueous solution was added to each well, and the resultant was further cultured for 2 hours. Next, the culture plate was placed on a fluorescent micro-plate reader (Spectramax Gemeni XS; US Molecular Device), radiated at an excited wavelength of 536 nm. Fluorescent intensity was measured at 588 nm, and residual rate of L6 cells of the test solution added group, and that of the control was calculated. Based on the cell residual rate obtained in the above, growth inhibition rate to L6 cells was calculated, to obtain a 50% growth inhibition concentration (EC50). Growth inhibition rate (%)={(C−A)/(B−A)}×100 A: primary cell count B: cell count of control, 3 days after C: cell count of wells added with a sample, 3 days after […]

[4] = tested on: Trypanosoma brucei rhodensiense (STIB 900 strain); assay: African trypanosome protozoa growth inhibition screening test; conditions: Trypanosoma brucei, STIB900; STIB 900 strain, blood stream form, 72 hours, Alamar Blue; read-out: 50% growth inhibiting concentration Trypanosoma brucei rhod.
Description: In the present example, protozoa of Trypanosoma brucei rhodensiense (STIB 900 strain), a trypamastigote living in blood stream, was used. The medium used in the experiment was a MEM medium which was sterilized with a filter and supplemented with 25 mM N-2-hydroxyethylpiperazine-2-ethansulfonic acid […]), 1 g/L glucose, 1% MEM non-essential amino acid, 0.2 mM 2-mercaptoethanol, 2 mM sodium pyruvate, 0.1 mM hypoxanthine, and 15% heat-treated horse serum. The protozoa was cultured in an atmosphere of CO2 concentration 5%, at a temperature of 37° C.
The compounds of the present invention to be used in the present test and the positive target drug (melarsoprol) were dissolved in DMSO to make a test solution of a predetermined concentration. A medium containing 8×10^3 protozoa, and a test solution containing a drug of a predetermined concentration or a drug-free DMSO were added to wells of a 96-well culture plate, and subsequently, medium was added so that the amount in each well becomes 100 μL. Test solutions were taken by duplicates. After culturing the culture plate for 72 hours in an incubator, growth inhibition activity was tested. Test was conducted as follows. 10 μL of Alamar Blue aqueous solution was added to each well, and the resultant was further cultured for 2 hours. Next, the culture plate was placed on a fluorescent micro-plate reader (Spectramax Gemeni XS; US Molecular Device), radiated at an excited wavelength of 536 nm. Fluorescent intensity was measured at 588 nm, to calculate the trypanosome protozoa infected rate of the test solution added-group, and of the control group. From the protozoan infection rate obtained in the above, growth inhibition rate was calculated with the following formula, to obtain a 50% growth inhibition concentration (EC50). Growth inhibition rate (%)={1−(b−a)/(c−a)}×100 a: early infection rate b: infection rate when test solution was added c: infection rate of the control

[5] = tested on: Trypanosoma cruzi (Tulahuen C2C4 strain); assay: American trypanosome protozoa growth inhibition screening test
Description: In the present example, amastigote and trypomastigote infected with rat L6 cells of protozoa of Trypanosoma cruzi (Tulahuen C2C4 strain) were used. As medium used in the test, RPMI 1640 medium containing L6 cells was supplemented so that L-glutamine (200 mM) becomes 1%, fetal bovine serum becomes 10%, which was cultured under CO2 concentration 5%, at 37° C.
The compounds of the present invention to be used in the test and the positive target agent (benznidazole) were dissolved in DMSO to make a test solution of a predetermined concentration. A medium containing 5×10^3 protozoa was added to wells of a 96-well culture plate, and pre-cultured for 48 hours. After replacing the medium, test solution containing drug of a predetermined concentration or a drug-free DMSO was added. Test solutions were taken by duplicates. After culturing the culture plate in an incubator for 96 hours, growth inhibition activity was tested. Test was conducted as follows.
50 μL of CPRG/Nonidet was added to each well, and allowed to rest for 2 to 6 hours. Next, the culture plate was placed on a fluorescent micro-plate reader, and the absorbance was measured at 540 nm. Growth inhibition rate was calculated with the following formula based on the protozoan infection rate which was obtained by calculating trypanosome infection rate of the test solution added group and control group, to obtain a 50% growth inhibition concentration (EC50). Growth inhibition rate (%)={1−(b−a)/(c−a)}×100 a: early infection rate b: infection rate when test solution was added c: infection rate of the control

[6] = tested on: Trypanosoma brucei rhodensiense (STIB 900 strain); assay: African trypanosome protozoa growth inhibition screening test; conditions: chemotherapy index = EC50 rat L6 cells / EC50 African trypanosome protozoa
[7] = tested on: Leishmania donovani (MHOM/ET/67/L82 strain); assay: Leishmania protozoa growth inhibition screening test; conditions: chemotherapy index = EC50 rat L6 cells / EC50 leishmania protozoa
[8] = tested on: Leishmania donovani (MHOM/ET/67/L82 strain); assay: as above; conditions: Leishmania donovani; MHOM/ET/67/L82 strain amastigote, pH 5.4, 72 hours, Alamar Blue; read-out: 50% growth inhibition concentration Leishmania donovani
Description: In the present example, Leishmania donovani (MHOM/ET/67/L82 strain) was used. Protozoa was subcultured in Syrian Golden hamster, from which an amastigote was obtained. In the experiment, SM medium supplemented with 10% heat-treated bovine fetal serum was used, which was adjusted to pH 5.4, and cultured in an atmosphere of 5% CO2 concentration, at 37° C.
The compounds of the present invention to be used in the present test and the positive target drug (miltefosine) were dissolved in DMSO to make a test solution of a predetermined concentration. After adding a medium containing a predetermined number of protozoa to wells of a 96-well culture plate and pre-treating, concentration of the amastigote was measured with CASY cell analysis system (Scharfe, Germany). Then, test solution containing a drug of a predetermined concentration or a drug-free DMSO was added. Test solutions were taken by duplicates. After culturing the culture plate for 72 hours in an incubator, growth inhibition activity was tested. Test was conducted as follows.
10 μL of Alamar Blue aqueous solution was added to each well, and the resultant was further cultured for 2 hours. Next, the culture plate was placed on a fluorescent micro-plate reader (Spectramax Gemeni XS; US Molecular Device), radiated at an excited wavelength of 536 nm. Fluorescent intensity was measured at 588 nm, and infection rate of leishmania protozoa of the test solution added-group and control was calculated, to obtain a 50% growth inhibition concentration (EC50). Growth inhibition rate (%)={1−(b−a)/(c−a)}×100 a: early infection rate b: infection rate when test solution was added c: infection rate of the control

[9] = tested on: Plasmodium falciparum K1 strain; assay: Chloroquine resistant-Plasmodium falciparum growth inhibition screening test
Description: In the present example, protozoa of Plasmodium falciparum K1 strain was used. RPMI-1640 medium sterilized with a filter to which human serum was added to be 5%, was used in the experiment. Malarial parasites were cultured under 3% O2 concentration, 4% Co2 concentration, 93% N2 concentration, and at a temperature of 37° C.
The compounds of the present invention to be used in the present test and the positive target drug (chloroquine) were dissolved in DMSO to make a test solution of a predetermined concentration. Cultured malarial parasite infected-erythrocytes were collected by centrifugation, and diluted with non-infected erythrocyte so that the early infection rate is 0.15%. Hematocrit level at that time was 2.5%. 200 μL of malaria infected solution was added to wells of a 96-well culture plate, and adjusted by adding a test solution containing drug of a predetermined concentration or a drug-free DMSO. Test solutions were taken by duplicates. After culturing for 48 hours at 37° C., 0.5 μCi radioactive tritium (3H)-labeled hypoxanthine was added to each well. After further culturing for 24 hours under the same conditions, it was collected on a glass fiber filter and washed with distilled water. Radiation intensity was measured with a beta plate liquid scintillation counter (Wallac), and malarial parasite infection rates of the test solution added group and of the control group were calculated. Growth inhibition rate was calculated with the following formula based on the malarial parasite infection rate obtained in the above, to obtain a 50% growth inhibition concentration (EC50). Growth inhibition rate (%)={1−(b−a)/(c−a)}×100 a: early infection rate b: infection rate when test solution was added c: infection rate of the control

[10] = drug sensitive FCR-3 strain, infected erythrocytes, cultured 72 hours, microscopy

CCn1c(=O)/c(=C/C=C2\Sc3ccc4ccccc4c3N2C)s/c1=C\c1sc2ccc3ccccc3c2[n+]1CC [A-2]
EC50 at 48 h ([1]; mouse): 0.8 µM | EC50 [2, 10]: 100 nM | Selective toxicity [2]: 8

CCn1c(=O)/c(=C/C=C2\Sc3ccc4ccccc4c3N2C)s/c1=C\c1scc(C)[n+]1CC [A-3]
EC50 at 48 h ([1]; mouse): 1.5 µM | EC50 [2, 10]: 75 nM | Selective toxicity [2]: 20

CCN1C=CC=C/C1=C\C=c1/s/c(=C\c2cc[n+](CC)c3ccccc23)n(CC)c1=O [A-11]
EC50 at 48 h ([1]; mouse): > 14 µM | EC50 [2, 10]: 600 nM | Selective toxicity [2]: >23

CCC[n+]1c(/C=c2\s/c(=C\C=C3/SCCN3CC)c(=O)n2CC)sc2c3ccccc3ccc21 [A-16]
EC50 at 72 h ([3]; Alamar Blue (Table 3), read-out: 50% growth inhibiting concentration Cytotoxicity L6): 0.94 µM | EC50 [4]: 30 nM | EC50 ([5]; Trypanosoma cruzi, Tulahuen C2C4 strain in rat L6 cells, 96 hours, CPRG/Nonidet, read-out: 50% growth inhibition concentration Trypanosoma cruzi): 90 nM | Selective toxicity ([5]; chemotherapy index = EC50 rat L6 cells / EC50 American trypanosome protozoa): 10 | Selective toxicity [6]: 31 | Selective toxicity [7]: 120 | EC50 [8]: 8 nM

CCN1CCS/C1=C\C=c1/s/c(=C\c2sc3c4ccccc4ccc3[n+]2CCO)n(CC)c1=O [A-17]
EC50 at 72 h ([3]; Alamar Blue (Table 2), read-out: 50% growth inhibition concentration Cytotoxicity L6): 53 µM | EC50 [4]: 93 nM | Selective toxicity [6]: 570 | Selective toxicity [7]: 4800 | EC50 ([9]; Plasmodium falciparum, 72 h, chloroquine resistant K1 strain, 3H-hypoxanthine, 48 + 24 hours, read-out: 50% growth inhibition concentration P. falciparum K1): 38 nM | Selective toxicity ([9]; chemotherapy index = EC50 rat L6 cells / EC50 chloroquine resistant P. falciparum): 1400 | EC50 [8]: 11 nM

CCN(CC)CCCC(C)Nc1ccnc2cc(Cl)ccc12 (centres unmarked) [chloroquine, reference compound]
EC50 at 48 h ([1]; mouse FM3A cells, 48 hours, cell count (Table 1), read-out: 50% growth inhibition concentration Cytotoxicity FM3A): 32 µM | EC50 ([2]; 72 h): 18 nM | Selective toxicity [2]: 1780

C=C[C@H]1C[N@@]2CC[C@H]1C[C@H]2[C@H](O)c1ccnc2ccc(OC)cc12 [quinine, reference compound]
EC50 at 48 h ([1]; mouse): 100 µM | EC50 [2, 10]: 110 nM | Selective toxicity [2]: 910
